In one series the target is Lipocalin-2 (LCN2) (Homo sapiens, UniProt P80188). The following applies: e.g., sub-nanomolar or low-nanomolar for ferric enterobactin; cited from earlier work.
For series [1] the following is noted: coupling reaction conditions.
Series [2] relates to pro-inflammatory cytokines (IL-17, IL-22), Lcn2. The series is classed as in vivo. The following applies: infected vs uninfected mice.
The next series concerns Ent. The series is classed as in vivo. The following applies: Peyer's patch cells, day 21 post-immunization; not in mock-immunized mice.
The conditions of series [3]: intranasal, first immunization and boost 14 days later; monitored up to 51 days; no sign of disease.
For a further series, the system named is intestinal microbiota. Description: Microbiota analysis (16S rDNA, Illumina MiSeq) of colon content of immunized mice. The class given is in vivo. The following applies: for Lactobacillus spp. fraction of the microbiota: immunized, infected mice, day 4; for S. Typhimurium fraction of the intestinal microbes: mice infected with S. Typhimurium for 4 days.
For the next series, the system named is S. Typhimurium. The class given is in vivo, Salmonella enterica serovar Typhimurium. The settings on record: for weight loss: C57BL/6 mice, 4 days after infection with 1×10^9 CFU S. Typhimurium, P=0.05.
The subject of the next series is Glu-Ent. The series is classed as in vivo. The settings on record: Peyer's patch cells, day 21 post-immunization; not in mock-immunized mice.
A further series concerns salmochelin (Glu-Ent). Description: ELISA/dot blot for fecal anti-salmochelin IgA in immunized mice. The series is classed as in vivo, C57BL/6 mice. The following applies: day 21 post-immunization. In general terms: In an ELISA, binding on a coated surface is turned into a signal by an enzyme label.
The next series concerns enterobactin (Ent). The series can be described thus: ELISA for fecal anti-enterobactin IgA in immunized mice. The class given is in vivo, C57BL/6 mice. The following applies: 14-21 days post-immunization, persisted up to 51 days post-immunization.
Where [4] appears, read: responders, 96 h after infection.

Lipocalin-2 (LCN2), sequence (P80188 21-198, species assumed): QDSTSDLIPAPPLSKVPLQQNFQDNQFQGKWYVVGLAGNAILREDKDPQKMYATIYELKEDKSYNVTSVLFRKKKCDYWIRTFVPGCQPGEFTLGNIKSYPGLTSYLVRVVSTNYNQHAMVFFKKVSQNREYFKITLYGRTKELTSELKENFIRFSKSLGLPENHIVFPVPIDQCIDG

In the case of `O=C(N[C@H]1COC(=O)[C@@H](NC(=O)c2cccc([O-])c2[O-])COC(=O)[C@@H](NC(=O)c2cccc([O-])c2[O-])COC1=O)c1cccc([O-])c1[O-].[Fe+3]` [ferric enterobactin], on Lipocalin-2 (LCN2), the “capture by LCN2” value is reported as “high affinity”.
Take `O=C(N[C@H]1COC(=O)[C@@H](NC(=O)c2cccc(O)c2O)COC(=O)[C@@H](NC(=O)c2cccc(O)c2O)COC1=O)c1cccc(O)c1O` [Enterobactin, enterobactin]: the “hydrolysis of the trilactone ring in aqueous solution” value in series [1] was “slowly undergoes hydrolysis”.
As for CTB-Ent, the “expression of pro-inflammatory cytokines (IL-17, IL-22) and Lcn2 in response to infection” value in series [2] is on record as “similarly upregulated”. Further, in the series on Ent, the “spots representing Ent-antibody complexes (ELISPOT)” value is recorded as “detected”. Moreover, in series [3], the “tolerability of the two immunizations” value is reported as “well tolerated”. Further, in the series with intestinal microbiota, the “Lactobacillus spp. fraction of the microbiota” value is reported as roughly 60% and the “S. Typhimurium fraction of the intestinal microbes” value worked out at 7%. Further, the “level of Escherichia spp.” value in the series with intestinal microbiota (vs low level in mock-immunized mice) is reported as “further reduced”. Also, in the series with S. Typhimurium, the weight loss was roughly 6%. Further, the “bacterial burden of S. Typhimurium in the colon content” value in the series with S. Typhimurium (in vivo) is “lower bacterial burden”. Moreover, in the series on S. Typhimurium (setting [4]), the “Salmonella burden, Peyer's patches” value is on record as “lower Salmonella burden”; the “Salmonella burden, spleen” value is “lower Salmonella burden”; the “Salmonella burden, terminal ileum” value is on record as “lower Salmonella burden”. The “spots representing Glu-Ent-antibody complexes (ELISPOT)” value in the series with Glu-Ent is given as “detected”. The “IgA binding to Glu-Ent (di-glucosylated form) in fecal samples” value in the series with salmochelin (Glu-Ent) is reported as “detected”. Besides, in the series on enterobactin (Ent), the “specific anti-Ent IgA antibodies in feces (ELISA)” value is on record as “detected”.
With salmochelins, the “capture by LCN2” value at Lipocalin-2 (LCN2) was “cannot capture”.
For the molecule “Cholera toxin B subunit [CTB, reference compound]”, the “expression of pro-inflammatory cytokines (IL-17, IL-22) and Lcn2 in response to infection” value in series [2] is “similarly upregulated”. In addition, in the series with intestinal microbiota, the “Lactobacillus spp. fraction of the microbiota” value is on record as roughly 19% and the “S. Typhimurium fraction of the intestinal microbes” value is recorded as “ca. 32%”. For the same molecule, in the series with S. Typhimurium, the weight loss is on record as roughly 10%.

The record behind these values is US10039816B2, “Siderophore-based immunization against gram-negative bacteria” (Massachusetts Institute of Technology, priority 2014, dated 2018).
